Key:
[1] = biological target: T1, Pdr5p (Saccharomyces cerevisiae, UniProt P33302); assay: ATPase (Pi release) assay on Pdr5p-overexpressing plasma membranes, oligomycin-sensitive activity; type: biochemical
T1 construct: gene PDR5; plasma membranes containing the overexpressed Pdr5p (strain AD124567)

[2] = biological target: T2, Na,K-ATPase α1 isoform (Mus musculus, UniProt Q8VDN2); assay: Na,K-ATPase activity of mouse kidney membranes, dose-response; type: biochemical
T2 construct: gene Atp1a1; native mouse kidney membrane preparation, primarily α1 isoform

[3] = biological target: T3, Na,K-ATPase α1 isoform (Homo sapiens, UniProt P05023); assay: competition of 3H-ouabain radioligand binding on HeLa cells
T3 construct: gene ATP1A1; endogenous enzyme on HeLa cell monolayers

T1 sequence (P33302 whole entry): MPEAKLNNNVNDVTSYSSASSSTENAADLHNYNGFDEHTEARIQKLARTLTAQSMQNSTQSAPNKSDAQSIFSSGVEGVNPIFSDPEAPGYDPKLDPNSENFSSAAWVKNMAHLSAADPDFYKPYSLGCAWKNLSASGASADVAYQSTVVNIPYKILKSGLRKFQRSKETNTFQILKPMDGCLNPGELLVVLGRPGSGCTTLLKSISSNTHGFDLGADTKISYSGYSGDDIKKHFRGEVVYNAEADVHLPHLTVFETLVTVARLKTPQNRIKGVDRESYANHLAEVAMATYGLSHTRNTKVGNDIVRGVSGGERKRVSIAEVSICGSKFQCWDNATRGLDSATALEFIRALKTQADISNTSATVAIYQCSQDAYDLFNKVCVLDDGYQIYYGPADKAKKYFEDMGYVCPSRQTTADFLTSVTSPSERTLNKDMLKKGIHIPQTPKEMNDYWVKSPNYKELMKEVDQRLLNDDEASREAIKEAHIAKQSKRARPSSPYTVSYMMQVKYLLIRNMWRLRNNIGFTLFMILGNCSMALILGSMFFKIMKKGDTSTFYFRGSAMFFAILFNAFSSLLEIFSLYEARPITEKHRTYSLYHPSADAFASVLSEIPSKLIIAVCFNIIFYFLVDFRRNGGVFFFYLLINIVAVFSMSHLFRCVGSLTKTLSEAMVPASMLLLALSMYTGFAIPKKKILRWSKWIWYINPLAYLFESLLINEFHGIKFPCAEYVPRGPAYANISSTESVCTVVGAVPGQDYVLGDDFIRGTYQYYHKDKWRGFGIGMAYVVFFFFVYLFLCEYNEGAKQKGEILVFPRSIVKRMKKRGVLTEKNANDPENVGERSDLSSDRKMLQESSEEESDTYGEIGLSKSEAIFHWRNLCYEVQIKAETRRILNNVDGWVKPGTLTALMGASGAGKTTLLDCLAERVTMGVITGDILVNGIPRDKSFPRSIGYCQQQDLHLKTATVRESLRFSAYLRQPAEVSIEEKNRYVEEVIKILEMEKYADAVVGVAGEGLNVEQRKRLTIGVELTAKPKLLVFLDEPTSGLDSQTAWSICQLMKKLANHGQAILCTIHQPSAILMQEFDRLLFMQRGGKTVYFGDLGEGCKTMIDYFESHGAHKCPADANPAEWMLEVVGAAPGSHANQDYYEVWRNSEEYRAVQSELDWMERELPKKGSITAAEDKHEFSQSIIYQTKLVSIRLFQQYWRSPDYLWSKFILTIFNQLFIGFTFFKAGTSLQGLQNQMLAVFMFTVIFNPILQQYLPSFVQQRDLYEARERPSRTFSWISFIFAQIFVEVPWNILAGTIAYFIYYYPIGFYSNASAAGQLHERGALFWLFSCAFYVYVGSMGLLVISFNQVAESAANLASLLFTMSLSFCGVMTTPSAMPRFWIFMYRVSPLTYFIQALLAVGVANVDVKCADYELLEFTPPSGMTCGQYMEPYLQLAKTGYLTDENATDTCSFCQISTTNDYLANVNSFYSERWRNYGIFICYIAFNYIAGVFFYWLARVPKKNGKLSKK

With `C[C@H]1O[C@@H](O[C@H]2[C@@H](O)C[C@H](O[C@H]3[C@@H](O)C[C@H](O[C@H]4CC[C@@]5(C)[C@H](CC[C@@H]6[C@@H]5C[C@@H](O)[C@]5(C)[C@@H](C7=CC(=O)O/C7=C\c7ccccc7)CC[C@]65O)C4)O[C@@H]3C)O[C@@H]2C)C[C@H](O)[C@@H]1O` [21-BD, 21-benzylidene digoxin] the IC50 [1] was 1250 ± 360 nM, the “Na,K-ATPase activity of mouse kidney membranes, dose-response” value [2] was “Similarly, 21-BD inhibited the mouse kidney Na,K-ATPase with similar kinetics” and the “competition of 3H-ouabain radioligand binding on HeLa cells” value [3] was 21-BD significantly competed with ouabain binding at concentrations in the µM range.

— PMC4188576 (PLoS ONE, 2014)
